Measured values from paper PMC4428032 (Bioconjugate Chemistry, 2015).

Experiments:
[1] = cited from earlier work
[2] = T1 relaxivity measurements at 0.5 T; format: physicochemical; conditions: 20 MHz, 25 °C

Row | Structure (SMILES) | thermodynamic stability constant log K [1] | T1 relaxivity [2] [mM^–1 s^–1]
1 | O=C([O-])CN1CCN(CC(=O)[O-])CCN(CC(=O)[O-])CC1.[Ga+3] [Ga-NOTA] | 31.0 | –
2 | O=C([O-])CN1CCN(CC(=O)[O-])CCN(CC(=O)O)CCN(CC(=O)[O-])CC1.[Gd+3] [Gd-DOTA] | 24.7 | –
3 | O=C([O-])CN1CCN(CC(=O)[O-])CCN(CC(=O)[O-])CC1.[Gd+3] [Gd-NOTA] | 14.3 | –
4 | CNC[C@H](O)[C@@H](O)[C@H](O)[C@H](O)CO.CNC[C@H](O)[C@@H](O)[C@H](O)[C@H](O)CO.O=C([O-])CN(CCN(CC(=O)[O-])CC(=O)O)CCN(CC(=O)[O-])CC(=O)O.[Gd+3] [Magnevist] | – | 4.1
